Data reported in patent US9233978B2, “6-fused heteroaryldihydropyrimidines for the treatment and prophylaxis of hepatitis B virus infection” (Hoffmann-La Roche Inc., priority 2014, dated 2016).
In brackets after ≈: the same amount, converted by molar mass. Like-named read-outs stand apart in the source and are kept apart here.

How the values were obtained:
[1] = test system: HBV; assay: Anti-HBV activity in vitro, HepG2.2.15 cells, extracellular HBV DNA by qPCR; assay type: cell-based; conditions: HepG2.2.15 cells, HBV replication inhibited by 50%, extracellular HBV DNA by qPCR, five days after compound treatment, read-out: EC50
Outline: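 Extracellular HBV DNA in culture supernatant was measured by qPCR after nucleic acid extraction. The supernatant came from constitutively replicating HepG2.2.15 cells exposed for five days to half-log-diluted compounds, with DMSO at 0.5% final. Cells had been plated overnight at 37 °C beforehand.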

[2] = test system: HepDE19 cells; assay: Cytotoxicity in HepDE19 cells (CCK-8) and selectivity index; assay type: cell-based; conditions: for Selectivity index (CC50/EC50): CC50 (HepDE19) value / EC50 (HepG2.2.15) value; for CC50: HepDE19 cells, CCK-8 cell viability, five days after treatment
Excerpt: (§1) HepG2.2.15 and HepDE19 are stably-transfected cell lines containing the HBV genome. Both cell lines are derived from the hepatoblastoma cell line Hep G2 (American Type Culture Collection, ATCC® HB-8065™) by the published procedures described in references: MA Selles et al. Proc. Natl. Acad. Sci. USA 1987, 84, 1005-1009 and H Guo et al. Journal of Virology 2007, 81, 12472-12484, respectively. Both cell lines were maintained in Dulbecco's modified Eagle's medium (DMEM)-F12 medium supplemented with 10% fetal bovine serum, 100 U/mL penicillin, 100 μg/mL streptomycin, and 0.5 mg/mL of G418.
(§2) HepDE19 cells were seeded into 96-well plates (5×10^3 cells per well) and treated with compounds for EC50 determination. Five days after treatment, cell viability was measured by addition of 20 μL of CCK-8 reagent. Two hours after incubation at 37° C., the absorbance at wavelengths of 450 nm and 630 nm (OD450 and OD630) was recorded by a plate reader. The concentration results in the death of 50% of the host cells (CC50) of each compound were determined.
(§3) The relative effectiveness of the compound in inhibiting viral replication compared to inducing cell death was defined as the selectivity index (CC50 value/EC50 value). Based on CC50 and EC50 data, selectivity indexes were determined.

[3] = Human microsomal metabolic stability; assay type: in vitro ADME; conditions: human microsomes 0.5 mg/mL, 1 μM test compound, NADPH, 37° C., pH 7.4, 0-30 minutes
Outline: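 1 μM compound with 0.5 mg/mL human liver microsomal protein in 100 mM phosphate pH 7.4 at 37° C, started with 1 mM NADPH or a NADPH-regenerating system. Sampled at 0–30 min, quenched in cold methanol with tolbutamide internal standard; remaining parent quantified by LC-MS/MS.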

[4] = Lysa solubility; assay type: physicochemical; conditions: 0.05 M phosphate buffer (pH 6.5)
Outline: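 Duplicate samples dried from 10 mM DMSO stocks, taken up in 0.05 M phosphate buffer pH 6.5, stirred 1 h, shaken 2 h and left overnight. Filtrate and 1/10 dilution quantified by direct UV or HPLC-UV, in μg/mL; above 80% of the calculated maximum, reported as greater than that value.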

[5] = Cytotoxicity in HepDE19 cells (CCK-8) and selectivity index; assay type: cell-based; conditions: human, HepDE19 cells; CCK-8 cell viability; five days after treatment
Excerpt: as §1, §2, §3

[6] = Hepatitis B virus, HepG2.2.15, 120 h

With `COC(=O)C1=C(CN2CCN3C(=O)N(C4CCC(C(=O)O)C4)C[C@@H]3C2)NC(c2nccs2)=N[C@H]1c1ccc(F)cc1Cl` (mixture of isomers) [Example 63, (R)-6-[(S)-2-((1R,3R)-3-Carboxy-cyclopentyl)-3-oxo-hexahydro-imidazo[1,5-a]pyrazin-7-ylmethyl]-4-(2-chloro-4-fluoro-phenyl)-2-thiazol-2-yl-1,4-dihydro-pyrimidine-5-carboxylic acid methyl ester and (R)-6-[(S)-2-((1S,3S)-3-Carboxy-cyclopentyl)-3-oxo-hexahydro-imidazo[1,5-a]pyrazin-7-ylmethyl]-4-(2-chloro-4-fluoro-phenyl)-2-thiazol-2-yl-1,4-dihydro-pyrimidine-5-carboxylic acid methyl ester] the EC50 [1] was 12 nM, the “Selectivity index (CC50/EC50)” value [2] was 7583 and the CC50 [2] was 91000 nM. For the same compound, the “Human Microsomal Clearance” value [3] was 5.3 mL/min/kg and the “Lysa” value [4] was over 751 µg/mL.

For `CCOC(=O)C1=C(CN2CCN3C(=O)N(C4CCC(C(=O)O)C4)C[C@@H]3C2)NC(c2nccs2)=N[C@H]1c1cccc(F)c1Cl` (mixture of isomers) [Example 64, (R)-6-[(S)-2-((1R,3R)-3-Carboxy-cyclopentyl)-3-oxo-hexahydro-imidazo[1,5-a]pyrazin-7-ylmethyl]-4-(2-chloro-3-fluoro-phenyl)-2-thiazol-2-yl-1,4-dihydro-pyrimidine-5-carboxylic acid ethyl ester and (R)-6-[(S)-2-((1S,3S)-3-Carboxy-cyclopentyl)-3-oxo-hexahydro-imidazo[1,5-a]pyrazin-7-ylmethyl]-4-(2-chloro-3-fluoro-phenyl)-2-thiazol-2-yl-1,4-dihydro-pyrimidine-5-carboxylic acid ethyl ester], the EC50 [1] was 8 nM, the “Selectivity index (CC50/EC50)” value [2] was 8375 and the CC50 [2] was 67000 nM. For the same compound, the “Human Microsomal Clearance” value [3] was 5.6 mL/min/kg and the “Lysa” value [4] was over 669 µg/mL.

With `COC(=O)C1=C(CN2CCN3C(=O)N(C(C)C)C[C@@H]3[C@H]2C(=O)O)NC(c2nccs2)=N[C@H]1c1ccc(F)c(F)c1C` (single isomer, unassigned) [Example 85B] the EC50 [1, 6] was 6 nM, the CC50 at 5 days [5] was over 100000 nM and the “Selectivity index (CC50/EC50)” value [2] was over 16667. The “Lysa” value [4] was 770 µg/mL.

For `CCOC(=O)C1=C(CN2CCN3C(=O)N(CC4CC4)C[C@@H]3[C@H]2C(=O)O)NC(c2nccs2)=N[C@H]1c1cccc(F)c1Cl` (single isomer, unassigned) [Example 97B], the EC50 [1, 6] was 0.9 nM, the CC50 at 5 days [5] was over 100000 nM and the “Selectivity index (CC50/EC50)” value [2] was over 100000.

For `CCOC(=O)C1=C(CN2CCN3C(=O)N(CC(C)C)C[C@@H]3[C@H]2C(=O)O)NC(c2nccs2)=N[C@H]1c1cccc(F)c1Cl` (single isomer, unassigned) [Example 101B], the EC50 [1, 6] was 0.8 nM, the CC50 at 5 days [5] was over 100000 nM and the “Selectivity index (CC50/EC50)” value [2] was over 100000. The “Human Microsomal Clearance” value [3] was 6.1 mL/min/kg.

In the case of `CCOC(=O)C1=C(CN2CCN3C(=O)N(C(C)C)C[C@@H]3C2)NC(c2nccs2)=N[C@H]1c1cccc(F)c1Cl` (single isomer, unassigned) [Example 104B], the EC50 [1, 6] is reported as 4 nM, the CC50 at 5 days [5] is reported as 27000 nM and the “Selectivity index (CC50/EC50)” value [2] is reported as over 6750.

For `CCOC(=O)C1=C(CN2CCN3C(=O)N(CC(C)(C)O)C[C@@H]3C2)NC(c2nccs2)=N[C@H]1c1cccc(F)c1Cl` (single isomer, unassigned) [Example 106B], the EC50 [1, 6] was 3 nM, the CC50 at 5 days [5] was 65000 nM and the “Selectivity index (CC50/EC50)” value [2] was 21666.

With `COC(=O)C1=C(CN2CCN3C(=O)OC[C@@H]3C2)NC(c2nccs2)=N[C@H]1c1ccc(F)cc1Cl` [Example 4, Methyl (4R)-6-[[(8aS)-3-oxo-5,6,8,8a-tetrahydro-1H-oxazolo[3,4-a]pyrazin-7-yl]methyl]-4-(2-chloro-4-fluoro-phenyl)-2-thiazol-2-yl-1,4-dihydropyrimidine-5-carboxylate] the EC50 [1, 6] was 3 nM, the CC50 at 5 days [5] was 79000 nM and the “Selectivity index (CC50/EC50)” value [2] was 23872.

With `CCOC(=O)C1=C(CN2CCN3C(=O)NC[C@@H]3C2)NC(c2nccs2)=N[C@H]1c1ccc(F)cc1Br` [Example 14, Ethyl (4R)-6-[[(8aR)-3-oxo-1,2,5,6,8,8a-hexahydroimidazo[1,5-a]pyrazin-7-yl]methyl]-4-(2-bromo-4-fluoro-phenyl)-2-thiazol-2-yl-1,4-dihydropyrimidine-5-carboxylate] the EC50 [1, 6] was 2 nM, the CC50 at 5 days [5] was 23000 nM and the “Selectivity index (CC50/EC50)” value [2] was 13016.

For `CCOC(=O)C1=C(CN2CCN3C(=O)NCC3(C(=O)OC)C2)NC(c2nccs2)=N[C@H]1c1cccc(F)c1Cl` (stereo partly drawn) [Example 24, Methyl 7-[[(4R)-4-(2-chloro-3-fluoro-phenyl)-5-ethoxycarbonyl-2-thiazol-2-yl-1,4-dihydropyrimidin-6-yl]methyl]-3-oxo-2,5,6,8-tetrahydro-1H-imidazo[1,5-a]pyrazine-8a-carboxylate], the EC50 [1, 6] was 1 nM, the CC50 at 5 days [5] was 53000 nM and the “Selectivity index (CC50/EC50)” value [2] was 37857.

With `CCOC(=O)C1=C(CN2CCN3C(=O)N(c4ccc(C(=O)O)cc4)C[C@@H]3C2)NC(c2nccs2)=N[C@H]1c1cccc(F)c1Cl` [Example 26, (R)-6-[(S)-2-(4-Carboxy-phenyl)-3-oxo-hexahydro-imidazo[1,5-a]pyrazin-7-ylmethyl]-4-(2-chloro-3-fluoro-phenyl)-2-thiazol-2-yl-1,4-dihydro-pyrimidine-5-carboxylic acid ethyl ester] the EC50 [1, 6] was 2 nM, the CC50 at 5 days [5] was 28000 nM and the “Selectivity index (CC50/EC50)” value [2] was 18620.

With `CCOC(=O)C1=C(CN2CCN3C(=O)N(CC4(C(=O)O)CCC4)C[C@@H]3C2)NC(c2nccs2)=N[C@H]1c1cccc(F)c1Cl` [Example 60, 6-[(S)-2-(1-Carboxy-cyclobutylmethyl)-3-oxo-hexahydro-imidazo[1,5-a]pyrazin-7-ylmethyl]-4-((R)-2-chloro-3-fluoro-phenyl)-2-thiazol-2-yl-1,4-dihydro-pyrimidine-5-carboxylic acid ethyl ester] the EC50 [1, 6] was 6 nM, the CC50 at 5 days [5] was 68000 nM and the “Selectivity index (CC50/EC50)” value [2] was 11333. It also gave a solubility thermodynamic ([4]; phosphate buffer, pH 6.5, aqueous buffer, thermodynamic from solid) of 436 µg/mL (≈ 691 µM).

In the case of `CCOC(=O)C1=C(CN2CCN3C(=O)N(CCO)CC3C2)NC(c2nccs2)=N[C@H]1c1cccc(F)c1Cl` (stereo partly drawn) [Example 70, Ethyl (4R)-4-(2-chloro-3-fluoro-phenyl)-6-[[2-(2-hydroxyethyl)-3-oxo-5,6,8,8a-tetrahydro-1H-imidazo[1,5-a]pyrazin-7-yl]methyl]-2-thiazol-2-yl-1,4-dihydropyrimidine-5-carboxylate], the EC50 [1, 6] is reported as 5 nM, the CC50 at 5 days [5] is reported as 63000 nM and the “Selectivity index (CC50/EC50)” value [2] is reported as 12600.

In the case of `COC(=O)C1=C(CN2CCN3C(=O)NCC3(C(=O)OC)C2)NC(c2nccs2)=N[C@H]1c1ccc(F)cc1Cl` (stereo partly drawn) [Example 89, Methyl 7-[[(4R)-4-(2-chloro-4-fluoro-phenyl)-5-methoxycarbonyl-2-thiazol-2-yl-1,4-dihydropyrimidin-6-yl]methyl]-3-oxo-2,5,6,8-tetrahydro-1H-imidazo[1,5-a]pyrazine-8a-carboxylate], the EC50 [1, 6] is reported as 7 nM, the CC50 at 5 days [5] is reported as 75000 nM and the “Selectivity index (CC50/EC50)” value [2] is reported as 10714.

In the case of `CCCOC(=O)C1=C(CN2CCN3C(=O)N(CC(C)(C)C(=O)O)C[C@@H]3C2)NC(c2nccs2)=N[C@H]1c1cccc(F)c1Cl` [Example 93, 3-[(8aS)-7-[[(4R)-4-(2-chloro-3-fluoro-phenyl)-5-propoxycarbonyl-2-thiazol-2-yl-1,4-dihydropyrimidin-6-yl]methyl]-3-oxo-5,6,8,8a-tetrahydro-1H-imidazo[1,5-a]pyrazin-2-yl]-2,2-dimethyl-propanoic acid], the EC50 [1, 6] is reported as 12 nM, the CC50 at 5 days [5] is reported as 86000 nM and the “Selectivity index (CC50/EC50)” value [2] is reported as 7167.

For `CCOC(=O)C1=C(CN2CCN3C(=O)N(CC(C)(C)C(=O)O)C[C@@H]3C2)NC(c2nc(C)cs2)=N[C@H]1c1cccc(F)c1Cl` [Example 98, 3-[(8aS)-7-[[(4R)-4-(2-chloro-3-fluoro-phenyl)-5-ethoxycarbonyl-2-(4-methylthiazol-2-yl)-1,4-dihydropyrimidin-6-yl]methyl]-3-oxo-5,6,8,8a-tetrahydro-1H-imidazo[1,5-a]pyrazin-2-yl]-2,2-dimethyl-propanoic acid], the EC50 [1, 6] was 11 nM, the CC50 at 5 days [5] was 73000 nM and the “Selectivity index (CC50/EC50)” value [2] was 6636.
